Results reported in ChEMBL document CHEMBL1201862, “PubChem BioAssay data set” (2004).
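A five-concentration, 48-hour dose response in 96-well plates underlies each endpoint, interpolated linearly between surrounding concentrations. The concentration for 50% growth inhibition is given as GI50.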 Calls of active or inactive are those of the source. Cut-off read from the data, not from the text of the source: active = GI50 up to about 1.1 µM and inactive = higher.

How the values were obtained:
Assay in all cases: DTP human tumour cell line panel, 48 h
PC-3 = tested on: PC-3
NCI-H522 = tested on: NCI-H522
K562 = tested on: K562
M14 = tested on: M14
OVCAR-3 = tested on: OVCAR-3
NCI-H460 = tested on: NCI-H460
Malme-3M = tested on: Malme-3M
SF-295 = tested on: SF-295
RXF 393 = tested on: RXF 393
SW-620 = tested on: SW-620
MCF7 = tested on: MCF7
BT-549 = tested on: BT-549
TK-10 = tested on: TK-10
HOP-92 = tested on: HOP-92
A498 = tested on: A498
T47D = tested on: T47D
KM12 = tested on: KM12
UO-31 = tested on: UO-31
SF-539 = tested on: SF-539
SNB-75 = tested on: SNB-75

| Compound | GI50 (PC-3) | GI50 (NCI-H522) | GI50 (K562) | GI50 (M14) | GI50 (OVCAR-3) | GI50 (NCI-H460) | GI50 (Malme-3M) | GI50 (SF-295) | GI50 (RXF 393) | GI50 (SW-620) | GI50 (MCF7) | GI50 (BT-549) | GI50 (TK-10) | GI50 (HOP-92) | GI50 (A498) | GI50 (T47D) | GI50 (KM12) | GI50 (UO-31) | GI50 (SF-539) | GI50 (SNB-75) |
| --- | --- | --- | --- | --- | --- | --- | --- | --- | --- | --- | --- | --- | --- | --- | --- | --- | --- | --- | --- | --- |
| OCCSCc1cc(Cl)cc(Cl)c1O | > 100 µM (inactive) | > 100 µM (inactive) | > 100 µM (inactive) | > 100 µM (inactive) | > 100 µM (inactive) | > 100 µM (inactive) | > 100 µM (inactive) | > 100 µM (inactive) | > 100 µM (inactive) | > 100 µM (inactive) | > 100 µM (inactive) | > 100 µM (inactive) | > 100 µM (inactive) | 57.9 µM (inactive) | > 100 µM (inactive) | > 100 µM (inactive) | > 100 µM (inactive) | > 100 µM (inactive) |  |  |
| CCOC(=O)/C(C(=O)c1ccc([N+](=O)[O-])cc1)=C(\NS(=O)(=O)c1cc(C)c(Cl)cc1[S-])[n+]1ccc(N(C)C)cc1 | 16.7 µM (inactive) | 12.4 µM (inactive) | 32.1 µM (inactive) | 31.1 µM (inactive) | 32.3 µM (inactive) | 34.9 µM (inactive) | 14.4 µM (inactive) | 16.7 µM (inactive) | 64.1 µM (inactive) |  | 40.3 µM (inactive) | 35.5 µM (inactive) | 18.7 µM (inactive) | 3.27 µM (inactive) | 21.4 µM (inactive) | 50.8 µM (inactive) | 27.4 µM (inactive) | 35.3 µM (inactive) | 21.5 µM (inactive) |  |
| O=C(N(O)c1ccccc1Cl)C(O)(c1ccccc1)c1ccccc1 | 91.6 µM (inactive) | 33 µM (inactive) | 24.4 µM (inactive) | 54.1 µM (inactive) | 43.5 µM (inactive) | > 100 µM (inactive) | > 100 µM (inactive) | 30.4 µM (inactive) | 51.2 µM (inactive) | 42.7 µM (inactive) | 56.8 µM (inactive) | 60.1 µM (inactive) | 62.4 µM (inactive) | 26.1 µM (inactive) | > 100 µM (inactive) | 47 µM (inactive) | 36.1 µM (inactive) | 20.6 µM (inactive) | > 100 µM (inactive) |  |
| Cc1cc(CCC(=O)NCCNc2c3ccccc3nc3ccccc23)cc(C)c1O[Si](C)(C)C(C)(C)C | 1.55 µM (inactive) | 1.73 µM (inactive) | 0.276 µM (active) | 1.66 µM (inactive) | 1.96 µM (inactive) | 0.762 µM (active) | 2.06 µM (inactive) | 0.807 µM (active) | 1.5 µM (inactive) | 0.215 µM (active) | 0.242 µM (active) | 1.72 µM (inactive) | 1.63 µM (inactive) | 1.53 µM (inactive) | 0.525 µM (active) | 0.351 µM (active) | 0.366 µM (active) | 1.83 µM (inactive) | 0.194 µM (active) |  |
| CC1(C)CNCC(C)(OCc2ccccc2)C(=O)NC(C)(C)CNCC(C)(OCc2ccccc2)C(=O)N1 (stereo unspecified) | > 10 µM (inactive) |  | > 10 µM (inactive) | > 10 µM (inactive) | > 10 µM (inactive) | > 10 µM (inactive) | > 10 µM (inactive) | > 10 µM (inactive) | 3.78 µM (inactive) | > 10 µM (inactive) | > 10 µM (inactive) | > 10 µM (inactive) | > 10 µM (inactive) | 0.385 µM (active) | > 10 µM (inactive) | > 10 µM (inactive) | > 10 µM (inactive) | 6 µM (inactive) | > 10 µM (inactive) | 6.27 µM (inactive) |
| CCOC(=O)C(=[N+]=[N-])C(=O)CN1C(=O)c2ccccc2C1=O | > 100 µM (inactive) | > 100 µM (inactive) | > 100 µM (inactive) | > 100 µM (inactive) | > 100 µM (inactive) | > 100 µM (inactive) |  | > 100 µM (inactive) | > 100 µM (inactive) | > 100 µM (inactive) | > 100 µM (inactive) | > 100 µM (inactive) | > 100 µM (inactive) | > 100 µM (inactive) | > 100 µM (inactive) | > 100 µM (inactive) |  | > 100 µM (inactive) | > 100 µM (inactive) | > 100 µM (inactive) |
